pEC50, pIC50: −log10 of the molar value.
Key:
[1] = target: T1, Beta-1 adrenergic receptor (Homo sapiens, UniProt P08588); assay: Binding affinity for human Beta-1 adrenergic receptor using [125I]iodocyanopindolol as radioligand in CHO cells; type: cell-based
Target sequence in this assay (P08588 whole entry): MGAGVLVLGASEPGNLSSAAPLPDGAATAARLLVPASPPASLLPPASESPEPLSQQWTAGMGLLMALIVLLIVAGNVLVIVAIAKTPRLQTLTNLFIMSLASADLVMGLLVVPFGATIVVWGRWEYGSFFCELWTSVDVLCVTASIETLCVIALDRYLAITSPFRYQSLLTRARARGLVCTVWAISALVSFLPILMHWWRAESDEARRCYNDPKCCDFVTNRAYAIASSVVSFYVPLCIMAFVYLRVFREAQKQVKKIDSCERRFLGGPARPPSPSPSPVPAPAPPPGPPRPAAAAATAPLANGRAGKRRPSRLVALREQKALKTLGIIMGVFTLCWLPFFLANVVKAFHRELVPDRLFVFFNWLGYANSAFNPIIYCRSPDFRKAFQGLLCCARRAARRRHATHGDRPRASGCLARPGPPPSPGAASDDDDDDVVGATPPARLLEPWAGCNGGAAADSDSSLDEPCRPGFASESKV

[2] = target: T2, Beta-3 adrenergic receptor (Homo sapiens, UniProt P13945); assay: In vitro efficacy at human beta-3 adrenergic receptor.
Target sequence in this assay (P13945 whole entry): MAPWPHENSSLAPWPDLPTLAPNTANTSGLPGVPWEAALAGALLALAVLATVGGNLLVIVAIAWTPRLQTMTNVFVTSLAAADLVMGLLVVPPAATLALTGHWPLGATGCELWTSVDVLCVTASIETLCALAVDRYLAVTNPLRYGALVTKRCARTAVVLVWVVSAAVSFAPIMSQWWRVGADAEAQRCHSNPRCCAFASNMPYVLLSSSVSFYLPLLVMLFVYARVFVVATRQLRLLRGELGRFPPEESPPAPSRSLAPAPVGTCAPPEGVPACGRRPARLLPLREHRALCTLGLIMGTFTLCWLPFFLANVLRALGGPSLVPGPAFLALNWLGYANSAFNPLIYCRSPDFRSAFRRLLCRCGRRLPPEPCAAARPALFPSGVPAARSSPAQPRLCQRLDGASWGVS

[3] = target: T3, Beta-2 adrenergic receptor (Homo sapiens, UniProt P07550); assay: Binding affinity to the human beta-2 adrenergic receptor assayed using [125I]iodocyanopindolol as radioligand in CHO cells; type: cell-based
Target sequence in this assay (P07550 whole entry): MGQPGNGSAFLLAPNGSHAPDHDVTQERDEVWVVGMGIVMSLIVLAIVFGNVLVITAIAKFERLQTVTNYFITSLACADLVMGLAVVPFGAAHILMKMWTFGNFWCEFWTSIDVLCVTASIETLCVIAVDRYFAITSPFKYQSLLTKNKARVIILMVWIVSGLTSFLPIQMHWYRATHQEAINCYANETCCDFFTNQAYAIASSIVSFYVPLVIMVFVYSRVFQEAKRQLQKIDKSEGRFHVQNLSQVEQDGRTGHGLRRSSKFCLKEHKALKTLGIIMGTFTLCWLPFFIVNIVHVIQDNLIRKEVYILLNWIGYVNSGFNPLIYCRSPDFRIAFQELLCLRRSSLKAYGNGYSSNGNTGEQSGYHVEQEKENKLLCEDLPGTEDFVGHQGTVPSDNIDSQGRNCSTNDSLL

[4] = target: T2, Beta-3 adrenergic receptor; assay: In vitro maximum activation of adenylyl cyclase compared to isoproterenol.; type: functional
Target sequence in this assay (P13945 whole entry, looked up): as the sequence (P13945 whole entry) above

[5] = target: T1, Beta-1 adrenergic receptor; assay: (§1) Percent of maximal stimulation was determined as adenylate cyclase activation using isoproterenol as standard at a concentration of 10000 nM; type: functional
Target sequence in this assay (P08588 whole entry, looked up): as the sequence (P08588 whole entry) above

[6] = target: T3, Beta-2 adrenergic receptor; assay: as §1; type: functional
Target sequence in this assay (P07550 whole entry, looked up): as the sequence (P07550 whole entry) above

[7] = target: T3, Beta-2 adrenergic receptor; assay: Percent of maximal stimulation was determined as adenylate cyclase activation using isoproterenol as standard at a concentration of 10000 nM
Target sequence in this assay (P07550 whole entry, looked up): as the sequence (P07550 whole entry) above

[8] = target: T1, Beta-1 adrenergic receptor; assay: Percent of maximal stimulation was determined as adenylate cyclase activation using isoproterenol as standard; type: functional
Target sequence in this assay (P08588 whole entry, looked up): as the sequence (P08588 whole entry) above

[9] = target: T1, Beta-1 adrenergic receptor; assay: Binding affinity towards human Beta-1 adrenergic receptor
Target sequence in this assay (P08588 whole entry): as above

[10] = target: T2, Beta-3 adrenergic receptor; assay: Percent of maximal stimulation was determined as adenylate cyclase activation using isoproterenol as standard at a concentration of 1000 nM; type: functional
Target sequence in this assay (P13945 whole entry, looked up): as the sequence (P13945 whole entry) above

## N#CN/C(=N\c1ccc(I)cc1)Nc1ccc(CCNC[C@H](O)c2cccnc2)cc1
[1]
  pIC50: 6.14
[2]
  pEC50: 7.00
[3]
  pIC50: 6.77
[4]
  Activation: 38%

## CCCCCCCCc1csc(N2CCc3cc(S(=O)(=O)Nc4ccc(CCNC[C@H](O)c5cccnc5)cc4)ccc32)n1
[1]
  pIC50: 5.60
[2]
  pEC50: 9.03
[3]
  pIC50: 5.89

## O=[N+]([O-])/C=C(\Nc1ccc(CCNC[C@H](O)c2cccnc2)cc1)Nc1ccc2ccccc2c1
[1]
  pIC50: 6.09
[2]
  pEC50: 6.74
[3]
  pIC50: 5.47
[4]
  Activation: 74%

## N#CN/C(=N\c1ccc2c(c1)CCN2c1nc(-c2ccc(OC(F)(F)F)cc2)cs1)Nc1ccc2cc(CCNC[C@H](O)c3cccnc3)ccc2c1
[5]
  Activation: 2%
[6]
  Activation: 11%
[4]
  Activation: 62%

## N#CN=C(Nc1ccc2c(c1)CCN2c1nc(-c2ccc(OC(F)(F)F)cc2)cs1)Nc1ccc2cc(CCNC[C@H](O)c3cccnc3)ccc2c1
[1]
  pIC50: 5.64
[2]
  pEC50: 7.72
[3]
  pIC50: 5.15

## O=[N+]([O-])/C=C(\Nc1ccc(CCNC[C@H](O)c2cccnc2)cc1)Nc1cccc(F)c1
[1]
  pIC50: 5.52
[2]
  pEC50: 6.52
[3]
  pIC50: 5.62
[4]
  Activation: 79%

## N#CN=C(Nc1ccc(CCNC[C@H](O)c2cccnc2)cc1)Nc1ccc2ccccc2c1
[1]
  pIC50: 6.13
[2]
  pEC50: 6.89
[3]
  pIC50: 7.30

## N#CN=C(Nc1ccc(CCNC[C@H](O)c2cccnc2)cc1)Nc1cccc(I)c1
[1]
  pIC50: 6.64
[2]
  pEC50: 7.23
[3]
  pIC50: 7.17

## N#CN/C(=N\c1ccc2c(c1)CCN2c1nc(-c2ccc(OC(F)(F)F)cc2)cs1)Nc1ccc(CCNC[C@H](O)c2cccnc2)cc1
[7]
  Activation: 51%
[8]
  Activation: 73%
[4]
  Activation: 82%

## NC(=O)c1cccc(N/C(=C/[N+](=O)[O-])Nc2ccc(CCNC[C@H](O)c3cccnc3)cc2)c1
[1]
  pIC50: 6.10
[2]
  pEC50: 8.00
[3]
  pIC50: 5.92
[4]
  Activation: 101%

## CCCCCCCCc1csc(N2CCc3cc(N/C(S)=N/c4ccc(CCNC[C@H](O)c5cccnc5)cc4)ccc32)n1
[1]
  pIC50: 6.96
[2]
  pEC50: 8.28
[3]
  pIC50: 6.59

## N#CN=C(Nc1ccc(CCNC[C@H](O)c2cccnc2)cc1)Nc1cccc2ccccc12
[1]
  pIC50: 6.32
[2]
  pEC50: 7.38
[3]
  pIC50: 6.24

## O=[N+]([O-])/C=C(\Nc1ccc(CCNC[C@H](O)c2cccnc2)cc1)Nc1cc(Cl)cc(Cl)c1
[1]
  pIC50: 5.42
[2]
  pEC50: 7.46
[3]
  pIC50: 5.25
[4]
  Activation: 85%

## N#CN/C(=N\c1ccc2ccccc2c1)Nc1ccc(CCNC[C@H](O)c2cccnc2)cc1
[4]
  Activation: 41%

## O=[N+]([O-])/C=C(\Nc1ccc(CCNC[C@H](O)c2cccnc2)cc1)Nc1cccc(Oc2ccccc2)c1
[1]
  pIC50: 6.08
[2]
  pEC50: 6.92
[3]
  pIC50: 6.66
[4]
  Activation: 93%

## N#CN/C(=N\c1cccc2ccccc12)Nc1ccc(CCNC[C@H](O)c2cccnc2)cc1
[4]
  Activation: 64%

## N#CN/C(=N\c1cccc(I)c1)Nc1ccc(CCNC[C@H](O)c2cccnc2)cc1
[4]
  Activation: 51%

## N#CN=C(Nc1ccc(CCNC[C@H](O)c2cccnc2)cc1)Nc1ccc2c(c1)CCN2c1nc(-c2ccc(OC(F)(F)F)cc2)cs1
[1]
  pIC50: 7.19
[2]
  pEC50: 7.89
[9]
  pEC50: 7.39
[3]
  pIC50: 6.74

## N#CN/C(=N\c1cccc(Oc2ccccc2)c1)Nc1ccc(CCNC[C@H](O)c2cccnc2)cc1
[1]
  pIC50: 6.62
[2]
  pEC50: 7.59
[3]
  pIC50: 7.40
[4]
  Activation: 70%

## CCCCCCCCc1csc(N2CCc3cc(N/C(=N/c4ccc(CCNC[C@H](O)c5cccnc5)cc4)NC#N)ccc32)n1
[4]
  Activation: 39%

## O=[N+]([O-])/C=C(\Nc1ccc(CCNC[C@H](O)c2cccnc2)cc1)Nc1cccc2ccccc12
[1]
  pIC50: 5.74
[2]
  pEC50: 6.85
[3]
  pIC50: 6.43
[4]
  Activation: 79%

## N#CN=C(Nc1ccc(CCNC[C@H](O)c2cccnc2)cc1)Nc1cccc(F)c1
[1]
  pIC50: 6.23
[2]
  pEC50: 7.00
[3]
  pIC50: 6.70

## N#CN/C(=N\c1ccc2c(c1)N(c1nc(-c3ccc(OC(F)(F)F)cc3)cs1)CC2)Nc1ccc(CCNC[C@H](O)c2cccnc2)cc1
[10]
  Activation: 11%
[1]
  pIC50: 6.21
[3]
  pIC50: 6.15
[5]
  Activation: 27%
[6]
  Activation: 20%

## N#CN/C(=N\c1cc(Cl)cc(Cl)c1)Nc1ccc(CCNC[C@H](O)c2cccnc2)cc1
[1]
  pIC50: 6.54
[2]
  pEC50: 7.05
[3]
  pIC50: 6.85
[4]
  Activation: 72%

## N#CN/C(=N\c1ccc(CCNC[C@H](O)c2cccnc2)cc1)Nc1cccc(C(N)=O)c1
[1]
  pIC50: 6.01
[2]
  pEC50: 6.82
[3]
  pIC50: 6.40
[4]
  Activation: 76%

## O=[N+]([O-])/C=C(\Nc1ccc(CCNC[C@H](O)c2cccnc2)cc1)Nc1cccc(I)c1
[1]
  pIC50: 5.96
[2]
  pEC50: 7.66
[3]
  pIC50: 5.92
[4]
  Activation: 97%

## N#CN/C(=N\c1cccc(F)c1)Nc1ccc(CCNC[C@H](O)c2cccnc2)cc1
[4]
  Activation: 69%

## N#CN/C(=N\c1cccc2c1CCN2c1nc(-c2ccc(OC(F)(F)F)cc2)cs1)Nc1ccc(CCNC[C@H](O)c2cccnc2)cc1
[1]
  pIC50: 5.08
[2]
  pEC50: 7.24
[3]
  pIC50: < 5.00
[5]
  Activation: 6%
[6]
  Activation: 20%
[4]
  Activation: 72%

## CCCCCCCCc1csc(N2CCc3cc(NC(=NC#N)Nc4ccc(CCNC[C@H](O)c5cccnc5)cc4)ccc32)n1
[1]
  pIC50: 7.80
[2]
  pEC50: 7.96
[3]
  pIC50: 7.30

## CCCCCCCCc1csc(N2CCc3ccc(N/C(=N/c4ccc(CCNC[C@H](O)c5cccnc5)cc4)NC#N)cc32)n1
[1]
  pIC50: 7.13
[2]
  pEC50: 7.23
[3]
  pIC50: 7.18
[4]
  Activation: 38%

## CCCCCCCCc1csc(N2CCc3c(N/C(=N/c4ccc(CCNC[C@H](O)c5cccnc5)cc4)NC#N)cccc32)n1
[1]
  pIC50: 5.92
[2]
  pEC50: 7.89
[3]
  pIC50: 6.03
[5]
  Activation: 11%
[6]
  Activation: 25%
[4]
  Activation: 62%

— ChEMBL document CHEMBL1134823, “Human beta3 adrenergic receptor agonists containing cyanoguanidine and nitroethylenediamine moieties” (Bioorg Med Chem Lett, 2001)
